Values of other authors in US20150045432A1, “DIETARY SUPPLEMENT COMPRISING AMINO ACIDS IN A PALATABLE LIQUID FORMULATION THAT PROMOTES RESTFUL SLEEP, RECOVERY FROM STRESS AND EXERCISE AND STRENGTHENS THE IMMUNE SYSTEM” (North Health Essentials, LLC, priority 2013, published 2015).

Columns and labels:
[1] = 3 grams of glycine, bolus before bedtime
[2] = rats
[3] = taken within an hour before going to bed, versus those who did not take the amino acid
[4] = after 60 minutes of administration, compared to water or L-threonine

Structure (SMILES)	alpha waves [4]	beta waves [4]	immunity under stress conditions (in vivo)	time after administration within which relaxant effects could be seen (induce relaxation and diminish anxiety) [h]	daytime sleepiness [1]	sleep quality and efficacy [1]	distribution in the brain [2]	brainwave patterns of non-REM sleep and sleep length [3]
NCCCC(=O)O [GABA, gamma-aminobutyric acid]	significantly increases alpha waves	decreases beta waves	could enhance immunity	≤ 1	–	–	–	–
NCC(=O)O [glycine]	–	–	–	–	lessened daytime sleepiness	improved sleep quality and efficacy	accumulates in the pineal gland	showed brainwave patterns associated with non-REM sleep sooner and slept longer
